≈ marks a conversion by molar mass, not a printed value. Bridge positions count the residues as written; N and C are the ends. Square brackets hold non-standard residues; d marks the D form. Peptide text beside a SMILES is read from it. * marks the point of attachment. Myristoyl = CCCCCCCCCCCCCC(=O)*; dOrn = NCCC[C@@H](N)C(=O)O; Orn = NCCC[C@H](N)C(=O)O
Legend:
[1] = test system: Candida albicans ATCC 64550; type: cell-based; conditions: ATCC 64550, 16 h
Description: (§1) All MIC assays were performed two independent times (n = 2) in 96‐well plates using a broth micro‐dilution method. The lowest concentration of that inhibited visible microbial growth was recorded as the MIC value.
(§2) For fungal strains, overnight cultures were diluted 2000‐fold in YPD broth. 100 µL of diluted cells was mixed with 100 µL of YPD broth containing each peptide ranging from […] 64 to 0.125 µg mL^−1 at 2‐fold serial dilutions.

Enterococcus faecalis 28 = assay: microbe, parasite or virus in culture; type: cell-based; conditions: 28, 16 h
Description: as §1
(§3) For most of bacterial strains, overnight cultures were diluted 5000‐fold in LB broth. For E. faecium and S. aureus, overnight cultures were diluted 1000‐ and 10000‐fold in LB broth, respectively. 100 µL of diluted cells was mixed with 100 µL of LB broth containing each peptide ranging from 64 to 0.125 µg mL^−1 at 2‐fold serial dilutions.

[2] = test system: Acinetobacter baumannii P53; assay: microbe, parasite or virus in culture; type: cell-based; conditions: Table S11; LB broth, 37 °C, 16 h, n = 2
Description: as §1, §3

[3] = test system: Vibrio alginolyticus XSBZ14; assay: microbe, parasite or virus in culture; type: cell-based; conditions: 16 h
Description: as §1, §3

[4] = test system: Salmonella enterica ATCC 14028; assay: microbe, parasite or virus in culture; type: cell-based; conditions: ATCC 14028, 16 h
Description: as §1, §3

[5] = test system: Klebsiella pneumoniae NCTC 5056; assay: microbe, parasite or virus in culture; type: cell-based; conditions: NCTC 5056, 16 h
Description: as §1, §3

[6] = test system: Enterococcus faecalis ATCC 29212; assay: microbe, parasite or virus in culture; type: cell-based; conditions: ATCC 29212, 16 h
Description: as §1, §3

Enterococcus faecalis 26 = assay: microbe, parasite or virus in culture; type: cell-based; conditions: 26, 16 h
Description: as §1, §3

[7] = test system: Streptococcus pyogenes ATCC 19615; assay: microbe, parasite or virus in culture; type: cell-based
Description: as §1, §3

[8] = test system: Pseudomonas aeruginosa PAO1; assay: microbe, parasite or virus in culture; type: cell-based; conditions: PAO1, 16 h
Description: as §1, §3

[9] = test system: Staphylococcus aureus USA300; assay: microbe, parasite or virus in culture; type: cell-based; conditions: for antibacterial activity (MIC) S. aureus USA300: Figure S127b, wild type
Description: as §1, §3

[10] = test system: Klebsiella pneumoniae CRKP 5452; assay: microbe, parasite or virus in culture; type: cell-based
Description: as §1, §3

[11] = test system: Acinetobacter baumannii ATCC 19606; assay: microbe, parasite or virus in culture; type: cell-based; conditions: ATCC 19606, 16 h
Description: as §1, §3

[12] = test system: Streptococcus mutans ATCC 25175; assay: microbe, parasite or virus in culture; type: cell-based; conditions: ATCC 25175, 16 h
Description: as §1, §3

[13] = test system: Staphylococcus aureus ATCC 25923; assay: microbe, parasite or virus in culture; type: cell-based; conditions: ATCC 25923, 16 h
Description: as §1, §3

[14] = test system: Klebsiella pneumoniae CRKP HS11286; assay: microbe, parasite or virus in culture; type: cell-based; conditions: CRKP HS11286, 16 h
Description: as §1, §3

[15] = test system: Staphylococcus aureus ATCC 6538; assay: microbe, parasite or virus in culture; type: cell-based; conditions: ATCC 6538, 16 h
Description: as §1, §3

[16] = test system: Acinetobacter baumannii 1104008; assay: microbe, parasite or virus in culture; type: cell-based
Description: as §1, §3

[17] = test system: Pseudomonas aeruginosa ATCC 9027; assay: microbe, parasite or virus in culture; type: cell-based; conditions: ATCC 9027, 16 h
Description: as §1, §3

[18] = test system: Acinetobacter baumannii ATCC 17978; assay: microbe, parasite or virus in culture; type: cell-based; conditions: ATCC 17978, 16 h
Description: as §1, §3

[19] = test system: Klebsiella pneumoniae ATCC 13883; assay: microbe, parasite or virus in culture; type: cell-based; conditions: ATCC 13883, 16 h
Description: as §1, §3

[20] = test system: Salmonella typhimurium LXX; assay: microbe, parasite or virus in culture; type: cell-based; conditions: murium LXX, 16 h
Description: as §1, §3

[21] = test system: Staphylococcus aureus Newman; assay: microbe, parasite or virus in culture; type: cell-based; conditions: Newman, 16 h
Description: as §1, §3

[22] = test system: Enterococcus faecium 35682; assay: microbe, parasite or virus in culture; type: cell-based; conditions: 35682, 16 h
Description: as §1, §3

Shigella Castellani LXX = assay: MIC assay (broth micro-dilution); type: cell-based; conditions: Table S11; LB broth, 37 °C, 16 h, n = 2
Description: as §1, §3

Escherichia coli DH5α = assay: MIC assay (broth micro-dilution); type: cell-based; conditions: Table S11; LB broth, 37 °C, 16 h, n = 2
Description: as §1, §3

[23] = test system: Candida albicans ATCC 10231; assay: MIC assay (YPD broth); type: cell-based
Description: as §1, §2

HeLa cells = assay: Cytotoxicity assay (CCK-8); type: cell-based, human; conditions: 48 h
Description: The cytotoxicity of each synAQU peptide was assessed using a cell counting kit‐8 (CCK‐8) assay. HeLa cells were first seeded in a 96‐well flat‐bottom microtiter plate with a density of ∼5000 cells per well and incubated in the DMEM medium supplemented with 10% FBS at 37 °C with 5% CO2 for 24 h. […] All cytotoxicity experiments were done in triplicate (n = 3) and repeated two independent times (n = 2).

[24] = test system: four Gram-negative bacteria, four Gram-positive bacteria, and one fungal pathogen; assay: Initial antimicrobial assay of 17 synAQUs; type: cell-based; conditions: MIC up to 64 µg mL^−1, Figure 3a
Description: as §1, §3, §2

[25] = test system: S. aureus USA300 MprFT345A; assay: MIC against daptomycin-resistant mutant; type: cell-based; conditions: for antibacterial activity (MIC) S. aureus USA300 MprFT345A: Figure S127b, daptomycin-resistant mutant
Description: as §1, §3
(§4) Overnight cultures S. aureus USA300 were diluted 10000‐fold in LB broth, and 100 µL of dilute cell suspension was added to 96‐well plates containing 100 µL serially diluted aquicidine C4, telomycin, and daptomycin (with 15 mM CaCl2). Overnight cultures K. pneumoniae CRKP5452 were diluted 5000‐fold in LB broth, and 100 µL of dilute cell suspension was added to 96‐well plates containing 100 µL serially diluted aquicidine L and colistin. After an incubation of 24 h at 37 °C, the MIC value was determined. […] The MIC value was recorded as described above, and the process was repeated daily for 21 days. Experiments were performed two independent times (n = 2).
(§5) Single‐nucleotide polymorphisms (SNPs) for telomycin‐, daptomycin‐ or colistin‐resistant mutants were identified using SNIPPY by mapping DNBSEQ‐seq reads to the reference genome of S. aureus USA300 or K. pneumoniae CRKP5452.

[26] = test system: S. aureus USA300 Cls2A338stop; assay: MIC against telomycin-resistant mutant; type: cell-based; conditions: for antibacterial activity (MIC) S. aureus USA300 Cls2A338stop: Figure S127b, telomycin-resistant mutant
Description: as §1, §3, §4, §5

[27] = Table S11, LB broth, 37 °C, 16 h, n = 2

Q: Which “MIC Candida albicans ATCC 64550” value [1] does the source give for `CCCCCCCCCCCCCC(=O)N[C@@H](CCCN)C(=O)N[C@H](Cc1ccc(O)cc1)C(=O)N[C@@H](C(=O)N[C@H]1C(=O)N[C@H](CCCN)C(=O)N[C@@H](CCCN)C(=O)N[C@H](C(C)C)C(=O)N[C@@H]([C@@H](C)CC)C(=O)N[C@@H](CC(C)C)C(=O)N[C@H](CCCN)C(=O)N[C@@H]([C@@H](C)O)C(=O)N[C@@H](C)C(=O)O[C@H]1C)C(C)C` [synAQU6-C4] (Myristoyl-[Orn][dY][dV][dT][dOrn][Orn][dV]IL[dOrn]TA; ester 4-C) here?
A: > 64 µg/mL

Q: What about the “MIC Enterococcus faecalis 28” value (Enterococcus faecalis 28) of the same compound?
A: > 64 µg/mL

Q: What about the “MIC Acinetobacter baumannii P53” value [2] of the same compound?
A: > 64 µg/mL

Q: And the “MIC Vibrio alginolyticus XSBZ14” value [3]?
A: > 64 µg/mL

Q: And the “MIC Salmonella enterica ATCC 14028” value [4]?
A: 32 µg/mL (≈ 20.9 µM)

Q: And the “MIC Klebsiella pneumoniae NCTC 5056” value [5]?
A: 32 µg/mL (≈ 20.9 µM)

Q: And the “MIC Enterococcus faecalis ATCC 29212” value [6]?
A: > 64 µg/mL

Q: And the “MIC Enterococcus faecalis 26” value (Enterococcus faecalis 26)?
A: 2 µg/mL (≈ 1.31 µM)

Q: And the “MIC Streptococcus pyogenes ATCC 19615” value [7, 27]?
A: 4 µg/mL (≈ 2.62 µM)

Q: And the “MIC Pseudomonas aeruginosa PAO1” value [8]?
A: 16 µg/mL (≈ 10.5 µM)

Q: What about the “MIC Staphylococcus aureus USA300” value ([9]; USA300, 16 h) of the same compound?
A: > 64 µg/mL

Q: What about the “MIC Klebsiella pneumoniae CRKP 5452” value [10, 27] of the same compound?
A: 16 µg/mL (≈ 10.5 µM)

Q: And the “MIC Acinetobacter baumannii ATCC 19606” value [11]?
A: > 64 µg/mL

Q: What about the “MIC Streptococcus mutans ATCC 25175” value [12] of the same compound?
A: 4 µg/mL (≈ 2.62 µM)

Q: What about the “MIC Staphylococcus aureus ATCC 25923” value [13] of the same compound?
A: 16 µg/mL (≈ 10.5 µM)

Q: And the “MIC Klebsiella pneumoniae CRKP HS11286” value [14]?
A: 32 µg/mL (≈ 20.9 µM)

Q: What about the “MIC Staphylococcus aureus ATCC 6538” value [15] of the same compound?
A: 16 µg/mL (≈ 10.5 µM)

Q: What about the “MIC Acinetobacter baumannii 1104008” value [16, 27] of the same compound?
A: 32 µg/mL (≈ 20.9 µM)

Q: What about the “MIC Pseudomonas aeruginosa ATCC 9027” value [17] of the same compound?
A: > 64 µg/mL

Q: And the “MIC Acinetobacter baumannii ATCC 17978” value [18]?
A: 32 µg/mL (≈ 20.9 µM)

Q: What about the “MIC Klebsiella pneumoniae ATCC 13883” value [19] of the same compound?
A: 32 µg/mL (≈ 20.9 µM)

Q: And the “MIC Salmonella typhimurium LXX” value [20]?
A: 32 µg/mL (≈ 20.9 µM)

Q: What about the “MIC Staphylococcus aureus Newman” value [21] of the same compound?
A: > 64 µg/mL

Q: And the “MIC Enterococcus faecium 35682” value [22]?
A: 32 µg/mL (≈ 20.9 µM)

Q: What about the “MIC Shigella Castellani LXX” value (Shigella Castellani LXX) of the same compound?
A: > 64 µg/mL

Q: And the “MIC Escherichia coli DH5α” value (Escherichia coli DH5α)?
A: 8 µg/mL (≈ 5.24 µM)

Q: And the “MIC Candida albicans ATCC 10231” value ([23]; Table S11, YPD broth, 30 °C, 16 h, n = 2)?
A: > 64 µg/mL

Q: Which “MIC (μg/mL) S. pyogenes ATCC 19615” value ([7]; ATCC 19615, 16 h) does the source give for `CCCCCCCCCCCCCC(=O)N[C@@H](CCCCN)C(=O)N[C@@H](CCCNC(=N)N)C(=O)N[C@@H](CC(C)C)C(=O)N[C@@H](C)C(=O)N[C@@H](CC(C)C)C(=O)N[C@@H]1C(=O)N[C@@H](CC(=O)O)C(=O)N[C@@H](CC(=O)O)C(=O)N[C@@H](C(C)C)C(=O)N[C@@H](CC(N)=O)C(=O)N[C@@H](C(C)C)C(=O)N[C@H](Cc2ccccc2)C(=O)N[C@@H](CC(N)=O)C(=O)O[C@@H]1C` [synAQU7-C6] (Myristoyl-KRLALTDDVNV[dF]N; ester 6-C) here?
A: > 64 µg/mL

Q: What about the “MIC (μg/mL) S. aureus USA300” value ([9]; USA300, 16 h) of the same compound?
A: > 64 µg/mL

Q: And the “MIC (μg/mL) K. pneumoniae CRKP 5452” value ([10]; CRKP 5452, 16 h)?
A: > 64 µg/mL

Q: And the “MIC (μg/mL) A. baumannii 1104008” value ([16]; 1104008, 16 h)?
A: > 64 µg/mL

Q: What about the “MIC (μg/mL) Hela” value (HeLa cells) of the same compound?
A: > 64 µg/mL

Q: And the “activity against all nine tested strains” value [24]?
A: not active

Q: And the “MIC (μg/mL) C. albicans ATCC 10231” value ([23]; ATCC 10231, 16 h)?
A: > 64 µg/mL

Q: For Daptomycin, which “antibacterial activity (MIC) S. aureus USA300” value [9] is on record?
A: 1 µg/mL

Q: And the “antibacterial activity (MIC) S. aureus USA300 MprFT345A” value [25]?
A: 16 µg/mL

Q: And the “increase in MIC against resistant mutant compared to wild type” value ([25]; S. aureus USA300 MprF^T345A vs wild type)?
A: 16 fold

Q: What about the “antibacterial activity (MIC) S. aureus USA300 Cls2A338stop” value [26] of the same compound?
A: 1 µg/mL

Q: For Telomycin, which “antibacterial activity (MIC) S. aureus USA300” value [9] is on record?
A: 4 µg/mL

Q: What about the “antibacterial activity (MIC) S. aureus USA300 MprFT345A” value [25] of the same compound?
A: 4 µg/mL

Q: And the “antibacterial activity (MIC) S. aureus USA300 Cls2A338stop” value [26]?
A: 128 µg/mL

Q: What about the “increase in MIC against resistant mutant compared to wild type” value ([26]; S. aureus USA300 Cls2^A338stop vs wild type) of the same compound?
A: 32 fold

From publication PMC12677607, “Identification of a Pair of Linear or Cyclic Naturally Inspired Bifunctional Lipopeptide Antibiotics That Overcome Antimicrobial Resistance” (Advanced Science, 2025)
